For orientation: CC50 means the concentration that lowers cell viability or growth by half. In general, inhibition refers to the drop in the measured response relative to a control, in per cent.

The source made the active and inactive calls. No cut-off for these calls is given here.

Data on one compound can be found in ChEMBL document CHEMBL1949531, “Synthesis and antiviral activities of novel gossypol derivatives” (Bioorg Med Chem Lett, 2012).

Data set [1] has as its system Human immunodeficiency virus 1. Put plainly: Antiviral activity against HIV1 3B infected human TZM-bl cells assessed as inhibition of viral replication by luciferase reporter assay. The data set is classed as functional, organism-based. Conditions: tzm-bl.
Data set [2] in a line: Cytotoxicity in human TZM-bl cells by MTT assay. The class given is cell-based. Background: Tetrazolium assays rely on reduction of a dye to a coloured formazan, in cell work by metabolically active cells.
For the next data set, the target named is Albumin (Homo sapiens, UniProt P02768). The data set is described as follows: Binding affinity to human serum albumin by fluorescence quenching assay. The data set is classed as ADME. Conditions: isolated protein.
The target of data set [3] is Human immunodeficiency virus type 1 reverse transcriptase (Human immunodeficiency virus 1) (UniProt Q72547). The data set is described as follows: Inhibition of HIV1 reverse transcriptase activity at 20 ug/ml.
For data set [4] the target is unchanged. The data set is described as follows: Inhibition of HIV1 reverse transcriptase activity at 4 ug/ml.
The target is the same in data set [5]. Put plainly: Inhibition of HIV1 reverse transcriptase activity at 0.8 ug/ml.
Data set [6] can be described thus: Cytotoxicity against MDCK cells by MTT assay. The data set is classed as cell-based, Canis lupus familiaris. Conditions: dog.
Data set [7] has as its target Human immunodeficiency virus type 1 reverse transcriptase (Human immunodeficiency virus 1) (UniProt Q72547). The data set is described as follows: Inhibition of HIV1 reverse transcriptase activity.

Albumin, sequence (P02768 whole entry): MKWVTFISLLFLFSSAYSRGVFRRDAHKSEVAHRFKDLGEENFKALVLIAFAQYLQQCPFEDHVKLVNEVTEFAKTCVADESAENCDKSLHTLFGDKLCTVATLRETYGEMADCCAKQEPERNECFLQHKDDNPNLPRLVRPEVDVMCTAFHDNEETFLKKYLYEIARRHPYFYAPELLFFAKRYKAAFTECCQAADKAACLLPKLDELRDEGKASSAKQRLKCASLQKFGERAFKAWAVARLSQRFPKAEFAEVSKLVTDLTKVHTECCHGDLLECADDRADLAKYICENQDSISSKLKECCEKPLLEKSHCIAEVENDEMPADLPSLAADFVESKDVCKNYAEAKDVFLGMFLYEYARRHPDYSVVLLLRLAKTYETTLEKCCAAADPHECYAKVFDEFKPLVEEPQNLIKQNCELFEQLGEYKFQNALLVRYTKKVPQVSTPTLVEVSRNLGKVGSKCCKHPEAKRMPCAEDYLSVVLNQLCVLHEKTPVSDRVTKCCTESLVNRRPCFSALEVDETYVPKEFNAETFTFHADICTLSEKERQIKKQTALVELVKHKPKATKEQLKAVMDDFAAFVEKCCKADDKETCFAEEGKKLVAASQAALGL

`Cc1cc2c(C(C)C)c(O)c(O)c(C=O)c2c(O)c1-c1c(C)cc2c(C(C)C)c(O)c(O)c(C=O)c2c1O` [GOSSYPOL]: the IC50 entry in data set [1] was “Not Active”. Further, the CC50 in data set [2] was 9.76 µM; in data set [6] it was 3.53 µM. This compound had a Ka on Albumin of 2.3906 ×10⁵ L/mol. Further, the inhibition in data set [3] is 73.2%; in data set [4] it was 76.3%; in data set [7] it was “Dose-dependent effect”. The inhibition result in data set [5] was “inactive”.
